Measurements from patent US4160839A, “Carbamyltriazole insecticides” (priority 1976, dated 1979).

Legend:
[1] = test system: southern armyworm (SA) larvae; assay: Spray test, southern armyworm (SA) larvae on bean leaves; format: in vivo; conditions: approx. 48 h after spraying
Protocol: (§1) Three 5 oz paper cups containing Henderson dwarf lima bean plants and one 5 oz paper cup containing Orange Gem nasturtiums, all growing in vermiculite, are placed on a turntable and sprayed to thorough wetness with 25 ml of a solution of the candidate chemical at the appropriate concentration. Nasturtiums were already infested with 50-100 bean aphids (BA). A bean plant in one paper cup was already infested with 50-100 two-spotted mites (TSM). Leaves from the two remaining bean plants are removed following spraying and placed in disposable petri dishes with 5 southern armyworm (SA) larvae in one petri dish, and 5 Mexican bean beetle (MBB) larvae in the other petri dish. The rating is done approximately 48 hours after spraying as follows:
(§2) So as to obtain more meaningful results, all tests are performed at the same time of day, whenever possible, usually in the forenoon. Temperature,illumination and humidity are the same in all tests. Atmospheric pressure is not controlled.
(§3) Results obtained with the novel insecticides of this invention at various concentrations of active chemical are tabulated below. The ratings given are for averages of three or more replicates. The oral lethal dose for 50 percent kill of laboratory rats is also recorded in the table. In conducting the toxicity tests on rats, 0.01 g of active chemical per ml in corn oil is employed as an additive to the diet of the animals.

[2] = test system: Mexican bean beetle (MBB) larvae; assay: Spray test, Mexican bean beetle (MBB) larvae on bean leaves; format: in vivo; conditions: approx. 48 h after spraying
Protocol: as §1, §2, §3

two-spotted mites (TSM) = assay: Spray test, two-spotted mites (TSM) on bean plants; format: in vivo; conditions: approx. 48 h after spraying
Protocol: as §1, §2, §3

[3] = Oral toxicity test on laboratory rats; conditions: rat, in vivo, in corn oil as additive to the diet, read-out: LD50 (oral lethal dose for 50 percent kill of laboratory rats)
Protocol: as §3

[4] = test system: Southern Corn Rootworm (SCR); assay: Southern Corn Rootworm (SCR) soil treatment test, root feeding damage on corn; format: in vivo; parameters: scale not given here; conditions: nine days after treatment
Protocol: Three 5 oz paper cups planted each with one kernel of DeKalb XL-361 corn are treated two days after planting with 10 ml of a 125 ppm solution of the candidate compound. Compounds with high efficacy are treated at lower concentrations. The experiment is a 4×5 factorial in a randomized complete block design with three replications. The tests are evaluated nine days after treatment. The roots are inspected under a dissecting microscope and rated as follows:
as §2, §3

bean aphids (BA) = assay: Spray test, bean aphids (BA) on nasturtiums; format: in vivo; conditions: approx. 48 h after spraying
Protocol: as §1, §2, §3

For C=CCSc1nc(C2CC2)nn1C(=O)N(C)C [R=2-propenyl (allyl), R'=cyclopropyl], the “SA rating (larvae dead)” value ([1]; 15 ppm) was 0 (no larvae dead), the “SA rating (larvae dead)” value ([1]; 31 ppm) was 0 (no larvae dead) and the “SA rating (larvae dead)” value ([1]; 62 ppm) was 0 (no larvae dead). For the same compound, the “SA rating (larvae dead)” value ([1]; 125 ppm) was 0 (no larvae dead), the “SA rating (larvae dead)” value ([1]; 250 ppm) was 0 (no larvae dead) and the “SA rating (larvae dead)” value ([1]; 500 ppm) was 5 (100% larvae dead). For the same compound, the “MBB rating (larvae dead)” value ([2]; 15 ppm) was 0 (no larvae dead), the “MBB rating (larvae dead)” value ([2]; 31 ppm) was 0 (no larvae dead) and the “MBB rating (larvae dead)” value ([2]; 62 ppm) was 0 (no larvae dead). The “MBB rating (larvae dead)” value ([2]; 125 ppm) was 2 (26-50% larvae dead), the “MBB rating (larvae dead)” value ([2]; 250 ppm) was 5 (100% larvae dead) and the “MBB rating (larvae dead)” value ([2]; 500 ppm) was 5 (100% larvae dead). The “TSM rating (dead adults)” value (two-spotted mites (TSM); 15 ppm) was 0 (no dead adults), the “TSM rating (dead adults)” value (two-spotted mites (TSM); 31 ppm) was 0 (no dead adults) and the “TSM rating (dead adults)” value (two-spotted mites (TSM); 62 ppm) was 3 (51-75% dead adults). For the same compound, the “TSM rating (dead adults)” value (two-spotted mites (TSM); 125 ppm) was 5 (100% dead adults), the “TSM rating (dead adults)” value (two-spotted mites (TSM); 250 ppm) was 5 (100% dead adults) and the “TSM rating (dead adults)” value (two-spotted mites (TSM); 500 ppm) was 5 (100% dead adults). The LD50 [3] was 5 to 10 mg/kg, the “SCR Rating (root feeding damage)” value ([4]; 3 ppm) was 3.0 and the “SCR Rating (root feeding damage)” value ([4]; 6 ppm) was 2.5. The “SCR Rating (root feeding damage)” value ([4]; 12 ppm) was 2.5, the “SCR Rating (root feeding damage)” value ([4]; 25 ppm) was 3.0 and the “SCR Rating (root feeding damage)” value ([4]; 50 ppm) was 3.5. The “BA rating (dead)” value (bean aphids (BA); 2 ppm) was 4 (76-99% dead), the “BA rating (dead)” value (bean aphids (BA); 4 ppm) was 5 (100% dead) and the “BA rating (dead)” value (bean aphids (BA); 8 ppm) was 5 (100% dead). For the same compound, the “BA rating (dead)” value (bean aphids (BA); 15 ppm) was 5 (100% dead), the “BA rating (dead)” value (bean aphids (BA); 31 ppm) was 5 (100% dead) and the “BA rating (dead)” value (bean aphids (BA); 62 ppm) was 5 (100% dead). The “BA rating (dead)” value (bean aphids (BA); 125 ppm) was 5 (100% dead), the “BA rating (dead)” value (bean aphids (BA); 250 ppm) was 5 (100% dead) and the “BA rating (dead)” value (bean aphids (BA); 500 ppm) was 5 (100% dead).
For C=C(Br)CSc1nc(C2CC2)nn1C(=O)N(C)C, the “SA rating (larvae dead)” value ([1]; 500 ppm) was 0 (no larvae dead), the “MBB rating (larvae dead)” value ([2]; 500 ppm) was 2 (26-50% larvae dead) and the “TSM rating (dead adults)” value (two-spotted mites (TSM); 500 ppm) was 2 (26-50% dead adults). For the same compound, the “SCR Rating (root feeding damage)” value ([4]; 50 ppm) was 0.3, the “SCR Rating (root feeding damage)” value ([4]; 100 ppm) was 4.3 and the “BA rating (dead)” value (bean aphids (BA); 4 ppm) was 0 (none dead). The “BA rating (dead)” value (bean aphids (BA); 8 ppm) was 2 (26-50% dead), the “BA rating (dead)” value (bean aphids (BA); 15 ppm) was 4 (76-99% dead) and the “BA rating (dead)” value (bean aphids (BA); 31 ppm) was 5 (100% dead). The “BA rating (dead)” value (bean aphids (BA); 62 ppm) was 5 (100% dead), the “BA rating (dead)” value (bean aphids (BA); 125 ppm) was 5 (100% dead) and the “BA rating (dead)” value (bean aphids (BA); 250 ppm) was 5 (100% dead). The “BA rating (dead)” value (bean aphids (BA); 500 ppm) was 5 (100% dead).
For C#CCSc1nc(C(C)C)nn1C(=O)N(C)C [R=2-propynyl, R'=isopropyl], the “SA rating (larvae dead)” value ([1]; 15 ppm) was 0 (no larvae dead), the “SA rating (larvae dead)” value ([1]; 31 ppm) was 0 (no larvae dead) and the “SA rating (larvae dead)” value ([1]; 62 ppm) was 0 (no larvae dead). For the same compound, the “SA rating (larvae dead)” value ([1]; 125 ppm) was 3 (51-75% larvae dead), the “SA rating (larvae dead)” value ([1]; 250 ppm) was 5 (100% larvae dead) and the “SA rating (larvae dead)” value ([1]; 500 ppm) was 5 (100% larvae dead). For the same compound, the “MBB rating (larvae dead)” value ([2]; 15 ppm) was 0 (no larvae dead), the “MBB rating (larvae dead)” value ([2]; 31 ppm) was 4 (76-99% larvae dead) and the “MBB rating (larvae dead)” value ([2]; 62 ppm) was 5 (100% larvae dead). For the same compound, the “MBB rating (larvae dead)” value ([2]; 125 ppm) was 5 (100% larvae dead), the “MBB rating (larvae dead)” value ([2]; 250 ppm) was 5 (100% larvae dead) and the “MBB rating (larvae dead)” value ([2]; 500 ppm) was 5 (100% larvae dead). For the same compound, the “TSM rating (dead adults)” value (two-spotted mites (TSM); 500 ppm) was 0 (no dead adults), the LD50 [3] was ~50 mg/kg and the “SCR Rating (root feeding damage)” value ([4]; 12 ppm) was 0.3. For the same compound, the “SCR Rating (root feeding damage)” value ([4]; 25 ppm) was 1.3, the “SCR Rating (root feeding damage)” value ([4]; 50 ppm) was 2.7 and the “BA rating (dead)” value (bean aphids (BA); 2 ppm) was 0 (none dead). The “BA rating (dead)” value (bean aphids (BA); 4 ppm) was 3 (51-75% dead), the “BA rating (dead)” value (bean aphids (BA); 15 ppm) was 5 (100% dead) and the “BA rating (dead)” value (bean aphids (BA); 31 ppm) was 5 (100% dead). The “BA rating (dead)” value (bean aphids (BA); 125 ppm) was 5 (100% dead), the “BA rating (dead)” value (bean aphids (BA); 250 ppm) was 5 (100% dead) and the “BA rating (dead)” value (bean aphids (BA); 500 ppm) was 5 (100% dead).
For C=C(C)CSc1nc(C(C)(C)C)nn1C(=O)N(C)C [R=2-methylallyl, R'=tert.butyl], the “SA rating (larvae dead)” value ([1]; 500 ppm) was 0 (no larvae dead), the “MBB rating (larvae dead)” value ([2]; 500 ppm) was 2 (26-50% larvae dead) and the “TSM rating (dead adults)” value (two-spotted mites (TSM); 500 ppm) was 0 (no dead adults). The “SCR Rating (root feeding damage)” value ([4]; 100 ppm) was 1.3, the “BA rating (dead)” value (bean aphids (BA); 2 ppm) was 1 (1-25% dead) and the “BA rating (dead)” value (bean aphids (BA); 4 ppm) was 4 (76-99% dead). For the same compound, the “BA rating (dead)” value (bean aphids (BA); 8 ppm) was 4 (76-99% dead), the “BA rating (dead)” value (bean aphids (BA); 15 ppm) was 5 (100% dead) and the “BA rating (dead)” value (bean aphids (BA); 31 ppm) was 5 (100% dead). The “BA rating (dead)” value (bean aphids (BA); 62 ppm) was 5 (100% dead), the “BA rating (dead)” value (bean aphids (BA); 125 ppm) was 5 (100% dead) and the “BA rating (dead)” value (bean aphids (BA); 250 ppm) was 5 (100% dead). For the same compound, the “BA rating (dead)” value (bean aphids (BA); 500 ppm) was 5 (100% dead).
